Experimental data reported in patent US20100286186A1, “NOVEL DICARBOXYLIC ACID LINKED AMINO ACID AND PEPTIDE PRODRUGS OF OPIOIDS AND USES THEREOF” (Shire LLC, priority 2009, published 2010).
Values joined by “and” are separate entries in the source; they are usually repeats but may differ in a detail not shown here. Identical values can stand only once. Marks after values point to notes of the source that are not given here.

Legend:
[1] = Bioavailability of oxycodone, codeine and dihydrocodeine from their succinyl valine ester prodrugs in the dog (oral gavage, two-way crossover); conditions: dogs, oral gavage; for T>50%Cmax of dihydrocodeine: 1 mg free base equivalents dihydrocodeine/kg; for T>50%Cmax of oxycodone: 1 mg free base equivalents oxycodone/kg
Experimental: The characteristics of the test animals are set out in Table 10, below.
(§1) Blood samples were taken at various times after administration and submitted to analysis for the parent drug and pro-drug using a validated LC-MS-MS assay. Pharmacokinetic parameters derived from the plasma analytical data were determined using Win Nonlin.

gut motility in the rat = test: Charcoal propulsion test of GI motility in the rat; assay type: in vivo; conditions: oral; for delay of the passage of the charcoal meal (gut motility): 30 mg/kg or equimolar dose
Experimental: Test treatments were administered to groups of up to 10 rats fasted overnight prior to the test.
Test treatments were administered orally 60 minutes prior to a 2.0 mL oral dose of a 10% suspension of charcoal in 5% gum arabic. Thirty minutes after dosing with charcoal, the rats were sacrificed and the entire gastro-intestinal tract quickly and carefully removed. The distance the charcoal meal had traveled from the pyloric sphincter toward the caecum was measured and expressed as a percentage of both the total gut length and the length of the small intestine.

[2] = tested on: guinea pig small intestine myenteric plexus longitudinal muscle; test: Ex vivo smooth muscle contractility, electrical field stimulation response of isolated guinea pig small intestine; conditions: for EC50: Cavia porcellus, isolated guinea pig ileum, concentration as free base of opioid, read-out: EC50, opioid effect on electrical field stimulation response
[3] = Systemic availability of hydrocodone in dogs after oral administration of hydrocodone or hydrocodone succinyl valine enol ester; conditions: 1 mg hydrocodone free base equivalents/kg; for half-life: t½ of hydrocodone
Experimental: Test substances i.e. hydrocodone or hydrocodone succinyl valine enol ester were administered by oral gavage to a group of five male dogs in a two-way crossover design The characteristics of the test animals are set out in Table 26, below.
as §1

[4] = Comparative oral bioavailability of oxycodone from various dicarboxylate bridged amino acid prodrugs in dogs (nine-way crossover); assay type: in vivo, dog; conditions: 1 mg/kg oxycodone free base, mean (±sd)
[5] = Comparative pharmacokinetics of oxycodone after oral administration to female Sprague Dawley rats; conditions: oral, 10 mg oxycodone free base equivalents/kg
[6] = Comparative pharmacokinetics of oxycodone in the cynomolgus monkey after oral administration; conditions: for T>50%Cmax of oxycodone: oral
[7] = In vitro stability of dicarboxylate amino acid ester prodrugs in simulated gastric and intestinal juice, distilled water and pH 10 buffer (HPLC); conditions: 37° C.
[8] = male dogs, oral, individual dogs 1M-5M
[9] = male cynomolgus monkeys, 1 mg oxycodone free base equivalents/kg, mean (n=5)

## COc1ccc2c3c1O[C@H]1[C@@H](OC(=O)CCC(=O)NC(C(=O)O)C(C)C)C=CC4[C@@H](C2)N(C)CC[C@@]341 (stereo in doubt) [Codeine-[succinyl-(S)-valine] ester, codeine-[succinyl-(S)-valine]ester]
[1]; 1 mg free base equivalents codeine/kg, median (n=5)
  T>50%Cmax of codeine: 2 h
Gut motility in the rat
  delay of the passage of the charcoal meal (gut motility): less than half the amount of codeine
[2]
  EC50: 6.3 µM
[2]; guinea pig ileal smooth muscle
  reduction in potency compared to parent drug: 50%

## COc1ccc2c3c1O[C@H]1[C@@H](O)CC[C@H]4[C@@H](C2)N(C)CC[C@@]341 [Dihydrocodeine, dihydrocodeine, reference compound]
[1]; individual dogs 1-5
  T>50%Cmax of dihydrocodeine: 0.5 h
[1]; median (n=5)
  T>50%Cmax of dihydrocodeine: 0.5^a h
[1]; median (n=5), listed as dihydrocodeine
  T>50%Cmax of dihydrocodeine: 0.5 h
Gut motility in the rat
  delay of the passage of the charcoal meal (gut motility): ~30%
[2]
  EC50: 5 µM

## COc1ccc2c3c1O[C@H]1C(=O)CC[C@H]4[C@@H](C2)N(C)CC[C@]314 [Hydrocodone, hydrocodone]
[3]; [8]
  AUC of hydrocodone: 0.155 µg·h/mL and 0.111 µg·h/mL and 0.0917 µg·h/mL and 0.071 µg·h/mL and 0.0953 µg·h/mL
  AUCt of hydrocodone: 0.154 µg·h/mL and 0.107 µg·h/mL and 0.0892 µg·h/mL and 0.0697 µg·h/mL and 0.0941 µg·h/mL
  Cmax of hydrocodone: 0.119 µg/mL and 0.0768 µg/mL and 0.0578 µg/mL and 0.0533 µg/mL and 0.0711 µg/mL
  T>50%Cmax of hydrocodone: 0.75 h (3×) and 1.25 h (2×)
  t½ of hydrocodone: 1.58 h and 1.66 h (2×) and 1.46 h
[3]; male dogs, oral, mean
  T>50%Cmax of hydrocodone: 0.95 h
[3]; male dogs, oral, median
  Tmax of hydrocodone: 0.5* h
[3]; male, Beagle, dog, plasma, po
  Tmax: 0.5 h
[3]; male, Beagle, dog, plasma, po, AUC of hydrocodone, male dogs, mean
  AUC: 0.105 µg·h/mL
[3]; male, Beagle, dog, plasma, po, AUCt of hydrocodone, male dogs, mean
  AUC(0-t): 0.103 µg·h/mL
[3]; male, Beagle, dog, plasma, po, Cmax of hydrocodone, male dogs, mean (n=5)
  Cmax: 0.0756 µg/mL
[3]; male, Beagle, dog, plasma, po, male dogs, individual dogs 1M-5M
  half-life: 1.31 h
[3]; male, Beagle, dog, plasma, po, male dogs, mean
  half-life: 1.54 h

## COc1ccc2c3c1O[C@H]1C(=O)CC[C@@]4(O)[C@@H](C2)N(C)CC[C@]314.Cl [Oxycodone HCl, oxycodone hydrochloride, reference compound]
[4]
  T50% Cmax of oxycodone: 2.0 (±0.6) h.
[1]; individual dogs 1-5
  T>50%Cmax of oxycodone: 0.5 h
[1]; median (n=5)
  T>50%Cmax of oxycodone: 0.5^a h
[5]; individual rats, hydrochloride
  T>50%Cmax of oxycodone: 1.75 h (2×) and 0.75 h (2×) and 0.5 h
[5]; median
  T>50%Cmax of oxycodone: 0.75^a h
[6]; male cynomolgus monkeys, 1 mg oxycodone free base equivalents/kg, individual monkeys 1-5, hydrochloride
  T>50%Cmax of oxycodone: 1.84 h and 1.18 h and 1.89 h and 2.37 h and 1.79 h
[6]; [9]
  T>50%Cmax of oxycodone: 1.81 h

## COc1ccc2c3c1O[C@H]1C(=O)CC[C@@]4(O)[C@@H](C2)N(C)CC[C@]314 [Oxycodone, oxycodone, reference compound]
Gut motility in the rat; 10 mg/kg
  % change from vehicle-treated animals, small intestine: −15.6%
  % change from vehicle-treated animals, total gut length: −16.0%
Gut motility in the rat; 30 mg/kg
  % change from vehicle-treated animals, small intestine: −52.2%
  % change from vehicle-treated animals, total gut length: −52.2%
Gut motility in the rat
  delay of the passage of the charcoal meal (gut motility): 52%
Gut motility in the rat; 100 mg/kg
  % change from vehicle-treated animals, small intestine: −75.5%
  % change from vehicle-treated animals, total gut length: −76.5%
[5]; median
  T>50%Cmax of oxycodone: 0.75 h
[6]; [9]
  T>50%Cmax of oxycodone: 1.8 h

## COc1ccc2c3c1O[C@H]1C(OC(=O)CCCC(=O)N[C@@H](CC(C)C)C(=O)O)=CC[C@@]4(O)[C@@H](C2)N(C)CC[C@]314 [Oxycodone-Glutaryl-Leu Enol Ester, oxycodone-[glutaryl-(S)-leucine] enol ester]
[7]; pH 1.1, 2 h
  Simulated gastric fluid (pH 1.1): % remaining after 2 h/37° C.: 98%
[7]; pH 6.8, 2 h
  Simulated intestinal fluid (pH 6.8): % remaining after 2 h/37° C.: 79%
[4]
  T50% Cmax of oxycodone: 3.4 (±0.7) h.
[6]; male cynomolgus monkeys, oral prodrug, 1 mg oxycodone free base equivalents/kg, individual monkeys 1-5
  Cmax of intact prodrug: BLQ
[6]; male cynomolgus monkeys, 1 mg oxycodone free base equivalents/kg, individual monkeys 1-5
  T>50%Cmax of oxycodone: 2.33 h and 2.40 h and 3.13 h and 4.66 h and 1.80 h
[6]; [9]
  T>50%Cmax of oxycodone: 2.86 h
[6]; male cynomolgus monkeys, 1 mg oxycodone free base equivalents/kg, mean (n=5), listed as OGLE
  T>50%Cmax of oxycodone: 2.9 h
[6]; monkeys, oral prodrug
  prodrug levels in plasma: below the limit of quantification
